Experimental data from patent US20100285959A1, “HERBICIDAL MIXTURES” (priority 2006, published 2010).

Tests used:
velvetleaf (ABUTH) [1] = test: Test 8 field trial, preemergence; assay type: in vivo, Abutilon theophrasti; settings: g a.i./ha: Cpd 2 100, Atrazine 1680, S-Metolachlor 1870
Description: (§1) Corn seeds (hybrid ‘Pioneer 31G96’) were planted in mid spring season, 3.8 cm deep in a clay loam soil having 2% organic matter and a pH of 6.6. Plots were 6.1 m long by 3.0 m wide with rows spaced 76 cm apart. Seeds were spaced 15 cm apart within the rows. The field was managed using conventional tillage practices. […] A few of the weed species could not be evaluated at every timing. […] Results are the means of the three replicates.

giant foxtail (SETFA) [2] = test: Test 1 field trial, preemergence; assay type: in vivo, Setaria faberi; settings: g a.i./ha: Atrazine 1680, S-Metolachlor 1870
Description: (§2) Corn seeds (hybrid ‘Pioneer 34N43’) were planted in mid spring season, 3.8 cm deep in a silt loam soil having 4.6% organic matter and a pH of 6. Plots were 10.7 m long by 1.5 m wide with rows spaced 76 cm apart. Seeds were spaced 18 cm apart within the rows. The field was managed using conventional tillage practices. […] Results are summarized in Table 1 and are the means of the three replicates. […] Colby's Equation (Colby, S. R. “Calculating Synergistic and Antagonistic Responses of Herbicide Combinations,” Weeds, 15(1), pp 20-22 (1967)) calculates the expected additive effect of herbicidal mixtures, and for two active ingredients is of the form:
(§3) Pa+b=Pa+Pb−(PaPb/100) • wherein Pa+b is the percentage effect of the mixture expected from additive contribution of the individual components, • Pa is the observed percentage effect of the first active ingredient at the same use rate as in the mixture, and • Pb is the observed percentage effect of the second active ingredient at the same use rate as in the mixture.

common ragweed (AMBEL) = test: Test 10 field trial, preemergence; assay type: in vivo, Ambrosia artemisiifolia; settings: 28 DAA; g a.i./ha: Cpd 2 100, Atrazine 1680, S-Metolachlor 1870
Description: (§4) Corn seeds (hybrid ‘Pioneer 33P65 RR’) were planted in mid spring season, 2.5 cm deep in a silt loam soil. Plots were 9.1 m long by 3.0 m wide with rows spaced 76 cm apart. The field was managed using conventional tillage practices. […] Results are the means of the three replicates.

[3] = system: common lambsquarters (CHEAL); test: Test 6 field trial, postemergence; assay type: in vivo, Chenopodium album; settings: 1120 g a.i./ha
Description: (§5) Corn seeds (hybrid ‘Pioneer 35Y62’) were planted in mid spring season, 3.8 cm deep in a silt loam soil having 4% organic matter and a pH of 5.8. Plots were 10.7 m long by 1.5 m wide with rows spaced 76 cm apart. Seeds were spaced 18 cm apart within the rows. The field was managed using conventional tillage practices. […] All treatments included a surfactant except glufosinate treatments, both alone and in combination. […] Results are summarized in Table 6 and are the means of the three replicates.

velvetleaf (ABUTH) [4] = test: Test 10 field trial, preemergence; assay type: in vivo, Abutilon theophrasti; settings: 28 DAA; g a.i./ha: Cpd 2 100, Atrazine 1680, S-Metolachlor 1870
Description: as §4

[5] = system: common lambsquarters (CHEAL); test: Test 1 field trial, preemergence; assay type: in vivo, Chenopodium album; settings: g a.i./ha: Atrazine 1680, S-Metolachlor 1870
Description: as §2, §3

corn (ZEAMD) [6] = test: Test 5 field trial, postemergence; assay type: in vivo, Zea mays ssp. indentata; settings: atrazine 1120, glufosinate 470 or glyphosate 1120 g a.i./ha alone
Description: Corn seeds (hybrid ‘Pioneer 38H69’) were planted in mid spring season, 5.1 cm deep in a silty clay loam soil having 3% organic matter and a pH of 6.5. Plots were 9.1 m long by 3.0 m wide with rows spaced 76 cm apart. The field was managed using conventional tillage practices. […] All treatments included a surfactant except glufosinate treatments, both alone and in combination. […] Results are summarized in Table 5 and are the means of the three replicates.

common cocklebur (XANST) = test: Test 10 field trial, preemergence; assay type: in vivo, Xanthium strumarium ssp. strumarium; settings: 28 DAA; g a.i./ha: Cpd 2 100, Atrazine 1680, S-Metolachlor 1870
Description: as §4

common blackjack (BIDPI) = test: Test 11 field trial, preemergence; assay type: in vivo, Bidens pilosa; design: scale not given here
Description: Corn seeds (hybrid ‘Pioneer 3041’) were planted in mid spring season, 5 cm deep in a clay soil having 2.6% organic matter and a pH of 5.6. Plots were 8 m long by 1.5 m wide with rows spaced 80 cm apart. Seeds were spaced 15 cm apart within the rows. The field was managed using conventional tillage practices. […] Treatments consisted of Compound 2 or
Goosegrass was not evaluated 16 or 91 days after application.

corn (ZEAMD) [7] = test: Test 1 field trial, preemergence; assay type: in vivo, Zea mays ssp. indentata; design: scale not given here; settings: g a.i./ha: Atrazine 1680, S-Metolachlor 1870
Description: as §2, §3

yellow foxtail (SETLU) = test: Test 6 field trial, postemergence; assay type: in vivo, Setaria glauca; settings: 1120 g a.i./ha
Description: as §5

[8] = system: ivyleaf morningglory (IPOHE); test: Test 8 field trial, preemergence; assay type: in vivo, Ipomoea hederacea; settings: g a.i./ha: Cpd 2 100, Atrazine 1680, S-Metolachlor 1870
Description: as §1

giant foxtail (SETFA) [9] = test: Test 8 field trial, preemergence; assay type: in vivo, Setaria faberi; settings: g a.i./ha: Cpd 2 100, Atrazine 1680, S-Metolachlor 1870
Description: as §1

velvetleaf (ABUTH) [10] = test: Test 6 field trial, postemergence; assay type: in vivo, Abutilon theophrasti; settings: 1120 g a.i./ha
Description: as §5

redroot pigweed (AMARE) = test: Test 1 field trial, preemergence; assay type: in vivo, Amaranthus retroflexus; settings: g a.i./ha: Atrazine 1680, S-Metolachlor 1870
Description: as §2, §3

| SMILES | ABUTH Obs (velvetleaf (ABUTH) [1]; 19 DAA) | ABUTH Obs (velvetleaf (ABUTH) [1]; 29 DAA) | ABUTH Obs (velvetleaf (ABUTH) [1]; 56 DAA) | SETFA Obs (giant foxtail (SETFA) [2]; 28 DAA) | SETFA Obs (giant foxtail (SETFA) [2]; 56 DAA) | AMBEL Obs (common ragweed (AMBEL)) | CHEAL Obs ([3]; 14 DAA) | CHEAL Obs ([3]; 28 DAA) | ABUTH Obs (velvetleaf (ABUTH) [4]) | CHEAL Obs ([5]; 28 DAA) | CHEAL Obs ([5]; 56 DAA) | ZEAMD Obs (corn (ZEAMD) [6]; 16 DAA) | ZEAMD Obs (corn (ZEAMD) [6]; 31 DAA) | XANST Obs (common cocklebur (XANST)) | ZEAMD Obs (corn (ZEAMD) [7]; 28 DAA) | ZEAMD Obs (corn (ZEAMD) [7]; 56 DAA) | SETLU Obs (yellow foxtail (SETLU); 14 DAA) | SETLU Obs (yellow foxtail (SETLU); 28 DAA) | IPOHE Obs ([8]; 19 DAA) | IPOHE Obs ([8]; 29 DAA) | also measured |
| --- | --- | --- | --- | --- | --- | --- | --- | --- | --- | --- | --- | --- | --- | --- | --- | --- | --- | --- | --- | --- | --- |
| CCNc1nc(Cl)nc(NC(C)C)n1 [Atrazine, atrazine, reference compound] | 87% | 99% | 98% | 93 | 0 | 95% | 100% | 100% | 55% | 100 | 100 | 0% | 0% | 40% | 0 | 0 | 0% | 0% | 45% | 100% | BIDPI Obs (common blackjack (BIDPI); 16 DAA, atrazine 1500 or metolachlor 2500 g a.i./ha alone): 100; BIDPI Obs (common blackjack (BIDPI); 30 DAA, atrazine 1500 or metolachlor 2500 g a.i./ha alone): 97; BIDPI Obs (common blackjack (BIDPI); 44 DAA, atrazine 1500 or metolachlor 2500 g a.i./ha alone): 80; BIDPI Obs (common blackjack (BIDPI); 62 DAA, atrazine 1500 or metolachlor 2500 g a.i./ha alone): 70; BIDPI Obs (common blackjack (BIDPI); 91 DAA, atrazine 1500 or metolachlor 2500 g a.i./ha alone): 40; IPOHE Obs ([8]; 56 DAA): 95%; SETFA Obs (giant foxtail (SETFA) [9]; 19 DAA): 60%; SETFA Obs (giant foxtail (SETFA) [9]; 29 DAA): 88%; SETFA Obs (giant foxtail (SETFA) [9]; 56 DAA): 67%; ABUTH Obs (velvetleaf (ABUTH) [10]; 14 DAA): 0%; ABUTH Obs (velvetleaf (ABUTH) [10]; 28 DAA): 0%; AMARE Obs (redroot pigweed (AMARE); 28 DAA): 100; AMARE Obs (redroot pigweed (AMARE); 56 DAA): 93 |
| Nc1nc(C2CC2)nc(C(=O)O)c1Cl [Compound 1, 6-amino-5-chloro-2-cyclopropyl-4-pyrimidinecarboxylic acid] |  |  |  |  |  |  |  |  |  |  |  |  |  |  |  |  |  |  |  |  | BIDPI Obs (common blackjack (BIDPI); 16 DAA, Cpd 2/Cpd 1 at 62 g a.i./ha, alone or + atrazine 1500 or metolachlor 2500): 60; BIDPI Obs (common blackjack (BIDPI); 16 DAA, Cpd 2/Cpd 1 at 125 g a.i./ha, alone or + atrazine 1500 or metolachlor 2500): 80; BIDPI Obs (common blackjack (BIDPI); 30 DAA, Cpd 2/Cpd 1 at 62 g a.i./ha, alone or + atrazine 1500 or metolachlor 2500): 60; BIDPI Obs (common blackjack (BIDPI); 30 DAA, Cpd 2/Cpd 1 at 125 g a.i./ha, alone or + atrazine 1500 or metolachlor 2500): 80; BIDPI Obs (common blackjack (BIDPI); 44 DAA, Cpd 2/Cpd 1 at 62 g a.i./ha, alone or + atrazine 1500 or metolachlor 2500): 40; BIDPI Obs (common blackjack (BIDPI); 44 DAA, Cpd 2/Cpd 1 at 125 g a.i./ha, alone or + atrazine 1500 or metolachlor 2500): 80; BIDPI Obs (common blackjack (BIDPI); 62 DAA, Cpd 2/Cpd 1 at 62 g a.i./ha, alone or + atrazine 1500 or metolachlor 2500): 40; BIDPI Obs (common blackjack (BIDPI); 62 DAA, Cpd 2/Cpd 1 at 125 g a.i./ha, alone or + atrazine 1500 or metolachlor 2500): 60; BIDPI Obs (common blackjack (BIDPI); 91 DAA, Cpd 2/Cpd 1 at 62 g a.i./ha, alone or + atrazine 1500 or metolachlor 2500): 0; BIDPI Obs (common blackjack (BIDPI); 91 DAA, Cpd 2/Cpd 1 at 125 g a.i./ha, alone or + atrazine 1500 or metolachlor 2500): 70 |
| O=C(O)CNCP(=O)(O)O [Glyphosate] |  |  |  |  |  |  | 100% | 100% |  |  |  | 0% | 0% |  |  |  | 97% | 96% |  |  | ABUTH Obs (velvetleaf (ABUTH) [10]; 14 DAA): 99%; ABUTH Obs (velvetleaf (ABUTH) [10]; 28 DAA): 100% |
| CCc1cccc(C)c1N(C(=O)CCl)[C@@H](C)COC [S-Metolachlor, S-metolachlor, reference compound] | 28% | 42% | 18% | 57 | 100 | 20% |  |  | 37% | 95 | 23 |  |  | 30% | 0 | 0 |  |  | 10% | 25% | IPOHE Obs ([8]; 56 DAA): 3%; SETFA Obs (giant foxtail (SETFA) [9]; 19 DAA): 93%; SETFA Obs (giant foxtail (SETFA) [9]; 29 DAA): 100%; SETFA Obs (giant foxtail (SETFA) [9]; 56 DAA): 94%; AMARE Obs (redroot pigweed (AMARE); 28 DAA): 100; AMARE Obs (redroot pigweed (AMARE); 56 DAA): 80 |
